SMILES strings stand for the structures. Activity calls are given as the source filed them. The rule behind the calls is not given here.

One data set concerns the target Cholinesterase (Homo sapiens, UniProt P06276). Kind of data set: Inhibition of human recombinant BuChE using butyrylthiocholine iodide as substrate after 20 mins preincubation by Ellman method. (In general: DTNB colorimetry detects thiols as they appear.)
Data set [1] can be described thus: Neurotoxicity in chicken primary telencephalon neuron expressing APP assessed as reduction in neuronal viability at 25 uM after 24 hrs by MTT assay. More on the design: species or system Gallus gallus. (In general: Tetrazolium assays rely on reduction of a dye to a coloured formazan, in cell work by metabolically active cells.)
Data set [2] deals with T1, Acetylcholinesterase (Homo sapiens, UniProt P22303). Kind of data set: Inhibition of human recombinant AChE using acetylthiocholine iodide as substrate after 20 mins preincubation by Ellman method.
T1 sequence (P22303 whole entry): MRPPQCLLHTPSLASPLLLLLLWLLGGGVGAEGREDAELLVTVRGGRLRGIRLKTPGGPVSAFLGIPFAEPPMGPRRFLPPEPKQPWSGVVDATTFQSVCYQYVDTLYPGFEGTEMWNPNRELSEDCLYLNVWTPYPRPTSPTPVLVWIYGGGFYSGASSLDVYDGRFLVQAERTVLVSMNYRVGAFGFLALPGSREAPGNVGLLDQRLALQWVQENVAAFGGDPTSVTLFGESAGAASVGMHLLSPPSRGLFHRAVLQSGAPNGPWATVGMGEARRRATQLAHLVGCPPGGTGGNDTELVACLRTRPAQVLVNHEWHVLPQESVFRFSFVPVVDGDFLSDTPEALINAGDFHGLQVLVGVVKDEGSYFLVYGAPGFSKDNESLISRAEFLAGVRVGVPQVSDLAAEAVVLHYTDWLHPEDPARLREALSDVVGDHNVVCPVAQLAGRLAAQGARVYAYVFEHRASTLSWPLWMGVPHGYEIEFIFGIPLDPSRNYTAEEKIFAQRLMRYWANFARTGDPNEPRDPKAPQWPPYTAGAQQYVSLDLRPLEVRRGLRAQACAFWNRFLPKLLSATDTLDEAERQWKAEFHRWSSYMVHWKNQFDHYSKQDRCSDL
The target in data set [3] is T2, Beta-secretase 1 (Homo sapiens, UniProt P56817). Description: Inhibition of recombinant BACE1 expressed in baculovirus system using panvera peptide as substrate at 3 uM after 60 mins by spectrofluorometric analysis.
T2 sequence (P56817 whole entry): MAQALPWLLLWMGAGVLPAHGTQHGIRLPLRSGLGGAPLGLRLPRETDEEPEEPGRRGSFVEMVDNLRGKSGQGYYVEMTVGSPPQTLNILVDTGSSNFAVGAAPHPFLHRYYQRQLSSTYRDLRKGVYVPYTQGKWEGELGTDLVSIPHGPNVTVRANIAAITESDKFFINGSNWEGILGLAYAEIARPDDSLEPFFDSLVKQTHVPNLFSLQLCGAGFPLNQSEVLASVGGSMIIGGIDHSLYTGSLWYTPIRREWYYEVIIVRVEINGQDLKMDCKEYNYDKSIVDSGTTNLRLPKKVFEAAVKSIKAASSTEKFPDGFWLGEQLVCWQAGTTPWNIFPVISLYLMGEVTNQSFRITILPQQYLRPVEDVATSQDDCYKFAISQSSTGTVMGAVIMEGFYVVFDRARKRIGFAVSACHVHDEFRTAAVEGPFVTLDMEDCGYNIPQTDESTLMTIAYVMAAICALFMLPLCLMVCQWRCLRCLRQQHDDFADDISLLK
A short description of data set [4]: Inhibition of amyloid beta (1 to 42) self-aggregation assessed as fibril formation at 10 uM after 24 hrs by thioflavin T-based fluorometric assay.
Data set [5] in a line: Neurotoxicity in chicken primary telencephalon neuron expressing APP assessed as reduction in neuronal viability at 50 uM after 24 hrs by MTT assay. On the set-up: species or system Gallus gallus.
A short description of data set [6]: Inhibition of gamma-secretase in chicken primary telencephalon neuron cells expressing APP assessed as inhibition of amyloid beta-40 production by electrochemiluminescence assay. The note with it: Gallus gallus.
Data set [7] addresses T1, Acetylcholinesterase. Description: Inhibition of human recombinant AChE-induced amyloid beta 40 aggregation assessed as fibril formation at 100 uM after 24 hrs by thioflavin T-based fluorometric assay.
Data set [8] addresses T2, Beta-secretase 1. Kind of data set: Inhibition of recombinant BACE1 expressed in baculovirus system using panvera peptide as substrate after 60 mins by spectrofluorometric analysis.
The target in data set [9] is T1, Acetylcholinesterase. Kind of data set: Inhibition of human recombinant AChE-induced amyloid beta (1-40) aggregation assessed as fibril formation after 24 hrs by thioflavin T-based fluorometric assay.
In data set [10] the target is T2, Beta-secretase 1. Description: Inhibition of recombinant BACE1 expressed in baculovirus system using M-2420 as substrate preincubated for 1 hr before substrate addition measured after 15 mins by spectrofluorometric analysis.
The nature of data set [11]: Inhibition of gamma-secretase in chicken primary telencephalon neuron cells expressing APP assessed as inhibition of amyloid beta-42 production by electrochemiluminescence assay. The note with it: Gallus gallus.
Data set [12] in a line: Inhibition of gamma-secretase in chicken primary telencephalon neuron cells expressing APP assessed as inhibition of amyloid beta-38 production by electrochemiluminescence assay. The note with it: Gallus gallus.
A short description of data set [13]: Neurotoxicity in chicken primary telencephalon neuron expressing APP assessed as reduction in neuronal viability at 0.01 to 50 uM after 24 hrs by MTT assay. On the set-up: species or system Gallus gallus.

Sequence of Cholinesterase (P06276 whole entry): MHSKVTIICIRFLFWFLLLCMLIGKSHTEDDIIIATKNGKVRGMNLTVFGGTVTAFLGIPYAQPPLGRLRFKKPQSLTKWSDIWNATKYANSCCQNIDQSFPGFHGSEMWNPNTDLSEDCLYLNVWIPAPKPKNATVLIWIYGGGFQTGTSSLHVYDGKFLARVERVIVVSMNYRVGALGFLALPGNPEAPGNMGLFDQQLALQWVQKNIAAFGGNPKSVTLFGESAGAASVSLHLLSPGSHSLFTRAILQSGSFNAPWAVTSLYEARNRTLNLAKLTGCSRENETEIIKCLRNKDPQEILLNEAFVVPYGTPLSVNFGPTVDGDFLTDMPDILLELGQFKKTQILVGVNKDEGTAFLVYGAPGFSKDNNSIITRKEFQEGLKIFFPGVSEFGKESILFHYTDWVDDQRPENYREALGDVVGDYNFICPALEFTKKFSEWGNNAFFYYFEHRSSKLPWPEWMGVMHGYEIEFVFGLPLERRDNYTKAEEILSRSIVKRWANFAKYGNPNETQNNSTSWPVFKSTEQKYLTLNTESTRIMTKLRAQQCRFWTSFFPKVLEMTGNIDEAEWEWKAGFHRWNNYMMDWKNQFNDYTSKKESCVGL

Take `COC1=CC(=O)C(N2CCC(C3CCN(Cc4ccccc4OC)CC3)CC2)=CC1=O`: the IC50 (commonly the concentration needed to halve the response being measured) on Cholinesterase was 3.58 µM; at Acetylcholinesterase [2], 24.4 µM. The Activity entry in data set [1] was “Toxic”. The values for the inhibition (on Beta-secretase 1 [3]; in data set [4]) were 32.9% and 20.5%, respectively.
As for `NCCCCCCNC1=CC(=O)c2ccccc2C1=O`, the IC50 was found to be 294 µM on Cholinesterase and 64.5 µM on Acetylcholinesterase [2]. For the same molecule, at Beta-secretase 1 [3], the inhibition (usually the drop in the measured response relative to a control, in per cent) is “inactive”. In data set [4], the inhibition was 13.8%.
Taken in the same sequence, the figures for `COc1ccccc1CN1CCC(N2CCC(NC3=CC(=O)c4ccccc4C3=O)CC2)CC1` were 3.16 µM, 17.2 µM, “inactive” and 21.4%.
Turning to `CCN(CCCCCCNC1=CC(=O)C(OC)=CC1=O)Cc1ccccc1OC`, the IC50 on Cholinesterase came to 22.8 µM; on Acetylcholinesterase [2], 0.0653 µM. In addition, the results for the inhibition (at Beta-secretase 1 [3]; in data set [4]) were 32.8% and 45.7%, respectively. Also, the Activity result in data set [5] is recorded as “Toxic”.
As for `CCN(CCCCCCNC1=CC(=O)c2ccccc2C1=O)Cc1ccccc1OC`, the IC50 in [6] was 21 µM; on Cholinesterase, 1.49 µM; at Beta-secretase 1 [8], 2.8 µM; at Acetylcholinesterase [9] it was 45 µM; on Acetylcholinesterase [2], 0.00973 µM; on Beta-secretase 1 [10], 3 µM. Besides, the IC50 in data set [11] came out at 46 µM; in [12], 19 µM. The figures for the inhibition (at Acetylcholinesterase [7]; on Beta-secretase 1 [3]; in [4]) were 69.1%, 60.2% and 27.3%, respectively. In addition, the Activity entry in data set [13] is on record as “Non-toxic”.
On to `CCN(CCCCCCNC1=CC(=O)C(NCCCCCCN(CC)Cc2ccccc2OC)=CC1=O)Cc1ccccc1OC` [MEMOQUIN], for which the IC50 was determined as 0.144 µM at Cholinesterase and 4.6 µM on Beta-secretase 1 [10]. In [1], the Activity result was “Toxic”. In addition, the inhibition at Beta-secretase 1 [3] is more than 80%; in data set [4], 66.8%.
For `CCN(CCCCCCNC1=CC(=O)c2ncccc2C1=O)Cc1ccccc1OC`, the figures for the inhibition (at Acetylcholinesterase [7]; in data set [4]) were 41.3% and 15.4%, respectively. In addition, the IC50 on Cholinesterase came out at 2.56 µM; on Acetylcholinesterase [2], 0.0279 µM. Besides, on Beta-secretase 1 [3], the inhibition entry is “inactive”.
In the case of `COc1ccccc1CNCCCCCCNC1=CC(=O)c2ccccc2C1=O`, the IC50 came out at 3.32 µM on Cholinesterase and 1.85 µM on Acetylcholinesterase [2]. Further, the inhibition entry on Beta-secretase 1 [3] was “inactive”. Moreover, in data set [4], the inhibition is 29.5%.
As to `CCN(CCCCCCNC1=CC(=O)C(C)=C(C)C1=O)Cc1ccccc1OC`, the inhibition on Acetylcholinesterase [7] was determined as 60.6%; at Beta-secretase 1 [3] it was 12.8%; in data set [4], 30.2%. In addition, the IC50 at Cholinesterase amounted to 0.314 µM; on Acetylcholinesterase [2] it was 0.029 µM.
